This is an account of results in article PMC11397024, “Strategic Fluorination to Achieve a Potent, Selective, Metabolically Stable, and Orally Bioavailable Inhibitor of CSNK2” (Molecules, 2024).

A short description of series [1]: Multi-dose PK study. The conditions noted are these: Balb/c mice, 30 mg/kg p.o. every 12 h; total plasma concentration factored by fu. It counts as in vivo. Here is the method: In the multi-dose PK study, three male Balb/c mice (6–8 weeks old, 20–30 g) were dosed via oral (p.o.) administration of four doses of compound 2 (30 mg/kg) as a 10 mL/kg volume of 3 mg/mL solution in DMSO/PEG-400/Water (v/v/v, 10:30:60) every 12 h. At 2, 6, 12, 14, 24, 26, 36, 38, and 48 h after the first dose, 0.025 mL of blood was collected from the dorsal metatarsal vein at each time point. Each blood sample was transferred into a plastic microcentrifuge tube containing EDTA-K2 anticoagulant and mixed well with the anticoagulant, then placed on ice prior to centrifugation at 4000× g for 5 min at 4 °C to obtain plasma. The samples were stored in a freezer at −75 ± 15 °C prior to analysis. […] The final compound concentration was calculated by multiplying the detected concentration by a dilution factor of four.
Concentrations of the test compound in the plasma samples were determined using a Prominence LC-MS/MS system with a DGU-20A5R(C) degasser, LC-30AD pump, CBM-20A system controller, SIL-20AC HT autosampler; Rack changer II, HALO 90A ES-CN (2.7 μm, 2.1 × 50 mm) column, and AB Sciex Triple Quan 5500 LC/MS/MS instrument. […] After centrifugation at 4 °C and 4000 rpm for 15 min, the supernatant was diluted with ultrapure water at a ratio of 1:2 (v/v, 1:2), then 20 µL of diluted supernatant was injected into the LC/MS/MS system for quantitative analysis. […]

Series [2] deals with SARS-CoV-2. The series is described as follows: SARS-CoV-2 assay in A549-ACE2 cells. It counts as cell-based.
Series [3] deals with T1, DAPK2 (Homo sapiens, UniProt Q9UIK4).
T1 construct: expressed in transfected cells; host or cells: HEK293
Nature of the series: NanoBRET dose-response DAPK2. The class given is cell-based. The conditions noted are these: highest concentration tested 30 μM.

Series [4] concerns the target T2, CSNK2A2 (Homo sapiens, UniProt P19784).
T2 construct: expressed in transfected cells; host or cells: HEK293
The series is described as follows: NanoBRET assay CSNK2A2. The conditions noted are these: HEK293 cells, singlicate, read-out: CSNK2A2 pIC50 (converted). It counts as cell-based. Here is the method:
Assays were run using a modified version of the previously published protocols. […] A transfection complex of DNA (10 μg/mL) was generated consisting of 9 μg/mL carrier DNA (Promega, Madison, WI, USA) and 1 μg/mL CSNK2A-NLuc fusion DNA in Opti-MEM without serum (Gibco). FuGENE HD (Promega) was added at 30 μL/mL to form a lipid–DNA complex. The solution was then mixed and incubated at room temperature for 20 min. The transfection complex was mixed with a 20× volume of HEK293 cells in DMEM/FBS to arrive at a final concentration of 200,000 cells/mL, and 100 μL/well was added to a 96-well plate that was incubated overnight at 37 °C and 5% CO2. The following day, the medium was removed via aspiration and replaced with 85 μL of Opti-MEM without phenol red. A total of 5 μL per well of 20× NanoBRET Tracer K10 (Promega) at 10 μM for CSNK2A1 or 5 μM for CSNK2A2 in Tracer Dilution Buffer (Promega N291B) was added to all wells, except the “no tracer” control wells. Test compounds (10 mM in DMSO) were diluted 100× in Opti-MEM media to prepare stock solutions and evaluated at 11 concentrations. A total of 10 μL per well of the 10-fold test compound stock solutions (final assay concentration of 0.1% DMSO) were added. […] The plates were read within 30 min on a GloMax Discover luminometer (Promega) equipped with a 450 nm BP filter (donor) and 600 nm LP filter (acceptor) using 0.3 s of integration time. […]
In general terms: BRET reads energy transfer from a luciferase to a nearby fluorophore.

SMILES strings stand for the structures. pIC50: −log10 of the molar value.

T1 sequence (Q9UIK4 whole entry): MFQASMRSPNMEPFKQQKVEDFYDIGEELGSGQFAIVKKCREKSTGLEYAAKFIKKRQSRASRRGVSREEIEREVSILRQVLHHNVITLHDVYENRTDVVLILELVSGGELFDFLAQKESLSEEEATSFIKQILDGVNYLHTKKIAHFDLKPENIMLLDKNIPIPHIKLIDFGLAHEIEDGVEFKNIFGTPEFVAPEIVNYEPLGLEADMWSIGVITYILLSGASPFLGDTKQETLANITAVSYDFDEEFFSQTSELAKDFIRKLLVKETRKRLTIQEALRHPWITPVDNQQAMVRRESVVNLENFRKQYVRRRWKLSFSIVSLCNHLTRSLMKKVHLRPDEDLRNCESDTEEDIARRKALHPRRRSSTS
T2 sequence (P19784 whole entry): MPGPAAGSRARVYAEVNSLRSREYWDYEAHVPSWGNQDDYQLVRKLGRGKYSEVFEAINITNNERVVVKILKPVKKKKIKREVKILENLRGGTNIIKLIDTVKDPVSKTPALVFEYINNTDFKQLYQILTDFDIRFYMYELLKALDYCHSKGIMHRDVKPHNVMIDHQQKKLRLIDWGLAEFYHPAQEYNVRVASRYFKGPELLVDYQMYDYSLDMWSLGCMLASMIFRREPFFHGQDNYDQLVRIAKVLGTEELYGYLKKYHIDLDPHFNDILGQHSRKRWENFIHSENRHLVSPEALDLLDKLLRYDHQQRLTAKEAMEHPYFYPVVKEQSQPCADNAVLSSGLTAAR

For the compound `CCC(=O)Nc1cc(Nc2cc(NC3CC3)n3ncc(C#N)c3n2)c(F)cc1N1CCC[C@H](NC)C1` [Compound 2, (S)-N-(5-((3-cyano-7-(cyclopropylamino)pyrazolo[1,5-a]pyrimidin-5-yl)amino)-4-fluoro-2-(3-(methylamino)piperidin-1-yl)phenyl)propionamide], the “free plasma Cpeak concentration” value in series [1] was in the range of 120 to 190 nM. Further, in series [2] (Severe acute respiratory syndrome coronavirus 2), the IC90 (in general, the concentration needed for an effect of 90%) is 2200 nM. Besides, the IC50 in series [2] (Severe acute respiratory syndrome coronavirus 2, triplicate, read-out: SARS-CoV-2 pIC50 (converted)) was 316 nM; in series [4], 12.6 nM. The pIC50 (in general, the negative decadic logarithm of the IC50, by convention in mol/L) in series [3] was less than 4.52.
